Test results as given in the NIST ThermoML archive (doi:10.1016/j.jct.2019.06.029).

Assay: wn = mass fraction of the nth substance listed
Conditions: 100 kPa, Liquid; for viscosity: Falling or rolling sphere viscometry; for speed of sound: Frequency=3 MHz, Single path-length method; for mass density: Vibrating tube method

O [water] + CCCCCCCC[n+]1ccc(C)cc1.[Br-]
w2 = 0
Conditions	viscosity [mPa·s]
288.15 K	1.136
293.15 K	1.001
298.15 K	0.89
303.15 K	0.797
308.15 K	0.718

CCCC[n+]1ccc(C)cc1.[Br-] [1-butyl-4-methylpyridinium bromide] + O
Conditions	mass density, w1 = 0.01 [kg/m3]	mass density, w1 = 0.015 [kg/m3]	mass density, w1 = 0.02 [kg/m3]	speed of sound, w1 = 0.01 [m/s]	speed of sound, w1 = 0.015 [m/s]	speed of sound, w1 = 0.02 [m/s]	viscosity, w1 = 0.01 [mPa·s]	viscosity, w1 = 0.015 [mPa·s]	viscosity, w1 = 0.02 [mPa·s]
288.15 K	1001.16	1002.26	1003.42	1472.7	1475.5	1478	1.165	1.176	1.195
293.15 K	1000.23	1001.31	1002.47	1488.2	1490.8	1493.3	1.024	1.037	1.044
298.15 K	999.051	1000.13	1001.26	1501.9	1504.1	1506.5	0.907	0.919	0.926
303.15 K	997.647	998.68	999.765	1513.7	1515.7	1517	0.813	0.824	0.833
308.15 K	996.019	996.958	998.102	1523.9	1525.8	1527.7	0.734	0.745	0.75

O [water] + CCCC[n+]1ccc(C)cc1.[Br-]
w2 = 0
Conditions	viscosity [mPa·s]
288.15 K	1.136
293.15 K	1.001
298.15 K	0.89
303.15 K	0.797
308.15 K	0.718

CCCCCCCC[n+]1ccc(C)cc1.[Br-] [1-octyl-4-methylpyridinium bromide] + O
Conditions	mass density, w1 = 0.01 [kg/m3]	mass density, w1 = 0.015 [kg/m3]	mass density, w1 = 0.02 [kg/m3]	speed of sound, w1 = 0.01 [m/s]	speed of sound, w1 = 0.015 [m/s]	speed of sound, w1 = 0.02 [m/s]	viscosity, w1 = 0.01 [mPa·s]	viscosity, w1 = 0.015 [mPa·s]	viscosity, w1 = 0.02 [mPa·s]
288.15 K	1000.54	1001.29	1002.09	1473.8	1477	1480.5	1.179	1.196	1.217
293.15 K	999.566	1000.32	1001.1	1489.1	1492.2	1495.3	1.031	1.046	1.063
298.15 K	998.379	999.123	999.874	1502.6	1505.3	1508.2	0.915	0.929	0.941
303.15 K	996.945	997.706	998.407	1514.5	1516.7	1519.5	0.817	0.833	0.844
308.15 K	995.3	996.048	996.742	1524.5	1526.4	1528.8	0.737	0.749	0.76

CCCCCC[n+]1ccc(C)cc1.[Br-] [1-hexyl-4-methylpyridinium bromide] + O
Conditions	mass density, w1 = 0.01 [kg/m3]	mass density, w1 = 0.015 [kg/m3]	mass density, w1 = 0.02 [kg/m3]	speed of sound, w1 = 0.01 [m/s]	speed of sound, w1 = 0.015 [m/s]	speed of sound, w1 = 0.02 [m/s]	viscosity, w1 = 0.01 [mPa·s]	viscosity, w1 = 0.015 [mPa·s]	viscosity, w1 = 0.02 [mPa·s]
288.15 K	1000.9	1001.79	1002.56	1473.1	1476.5	1479.6	1.172	1.183	1.195
293.15 K	999.956	1000.82	1001.8	1488.7	1491.6	1493.8	1.028	1.039	1.05
298.15 K	998.796	999.636	1000.38	1502.2	1504.9	1507.5	0.913	0.924	0.934
303.15 K	997.389	998.196	998.926	1514	1516.4	1518.9	0.817	0.824	0.834
308.15 K	995.718	996.546	997.238	1524	1526.2	1528.6	0.738	0.746	0.753

O [water] + CCCCCC[n+]1ccc(C)cc1.[Br-]
w2 = 0
Conditions	viscosity [mPa·s]
288.15 K	1.136
293.15 K	1.001
298.15 K	0.89
303.15 K	0.797
308.15 K	0.718
